This is an account of results in patent US20240002404A1, “SALT OF PYRROLOPYRIMIDINE COMPOUND, CRYSTALLINE FORM THEREOF, AND APPLICATION THEREOF” (GUANGZHOU JOYO PHARMATECH CO., LTD, priority 2020, published 2024).

In one data set the test system is Caco-2 cells. Put plainly: in vitro. Conditions: Caco-2. The protocol:
(§1) The transport buffer solution was HBSS (Hanks' balanced salt solution) and 10 mM HEPES [N-(2-hydroxyethyl)piperazine-N-(2-ethanesulfonic acid) solution], with a pH value of 7.40±0.05; Caco-2 cells were purchased from ATCC.
(§2) Caco-2 cells were seeded at 1×10^5 cells/cm^2 in 96-well BD insert plates of polyethylene terephthalate (PET), and the medium was refreshed every 4-5 days until day 21-28 to form a confluent monolayer. Test compounds were tested in a two-way format at 2 μM in duplicate. Digoxin was added at 10 μM in the two-way format, and nadolol and metoprolol were added at 2 μM in the two-way format. Final concentration of DMSO was adjusted to less than 1%. The plates were incubated in a CO2 incubator at 37±1° C. for 2 h with 5% CO2 at saturated humidity without shaking. All samples were mixed with acetonitrile containing an internal standard, and centrifuged at 4000 rpm for 10 min. 100 microliters of supernatant was diluted with 100 microliters of distilled water for LC/MS/MS analysis. By LC/MS/MS analysis, the concentrations of the test compounds and the reference compound in the initial test article solution, the test article solution and the test compound solution using the peak area ratio of the analyte to the internal standard. After the transport test, the integrity of the Caco-2 cell monolayer was determined by fluorescein yellow exclusion reaction, and the apparent permeability coefficient and efflux ratio were calculated.

A further data set is described as follows: in vitro. Conditions: human, Caco-2, pH 7.4. The method, then: as §1, §2
The target in the next data set is JAK3(h) (Homo sapiens (Human), UniProt P52333). Put plainly: In vitro activity assay of JAK3 kinase (radiometric, Eurofins). In kind it is biochemical. The method, then: (§3) Recombinant human JAK1, JAK2, JAK3 and TYK2 […], and main instruments and reagents were provided by Eurofins, UK.
Chain of JAK3(h) (P52333 whole entry): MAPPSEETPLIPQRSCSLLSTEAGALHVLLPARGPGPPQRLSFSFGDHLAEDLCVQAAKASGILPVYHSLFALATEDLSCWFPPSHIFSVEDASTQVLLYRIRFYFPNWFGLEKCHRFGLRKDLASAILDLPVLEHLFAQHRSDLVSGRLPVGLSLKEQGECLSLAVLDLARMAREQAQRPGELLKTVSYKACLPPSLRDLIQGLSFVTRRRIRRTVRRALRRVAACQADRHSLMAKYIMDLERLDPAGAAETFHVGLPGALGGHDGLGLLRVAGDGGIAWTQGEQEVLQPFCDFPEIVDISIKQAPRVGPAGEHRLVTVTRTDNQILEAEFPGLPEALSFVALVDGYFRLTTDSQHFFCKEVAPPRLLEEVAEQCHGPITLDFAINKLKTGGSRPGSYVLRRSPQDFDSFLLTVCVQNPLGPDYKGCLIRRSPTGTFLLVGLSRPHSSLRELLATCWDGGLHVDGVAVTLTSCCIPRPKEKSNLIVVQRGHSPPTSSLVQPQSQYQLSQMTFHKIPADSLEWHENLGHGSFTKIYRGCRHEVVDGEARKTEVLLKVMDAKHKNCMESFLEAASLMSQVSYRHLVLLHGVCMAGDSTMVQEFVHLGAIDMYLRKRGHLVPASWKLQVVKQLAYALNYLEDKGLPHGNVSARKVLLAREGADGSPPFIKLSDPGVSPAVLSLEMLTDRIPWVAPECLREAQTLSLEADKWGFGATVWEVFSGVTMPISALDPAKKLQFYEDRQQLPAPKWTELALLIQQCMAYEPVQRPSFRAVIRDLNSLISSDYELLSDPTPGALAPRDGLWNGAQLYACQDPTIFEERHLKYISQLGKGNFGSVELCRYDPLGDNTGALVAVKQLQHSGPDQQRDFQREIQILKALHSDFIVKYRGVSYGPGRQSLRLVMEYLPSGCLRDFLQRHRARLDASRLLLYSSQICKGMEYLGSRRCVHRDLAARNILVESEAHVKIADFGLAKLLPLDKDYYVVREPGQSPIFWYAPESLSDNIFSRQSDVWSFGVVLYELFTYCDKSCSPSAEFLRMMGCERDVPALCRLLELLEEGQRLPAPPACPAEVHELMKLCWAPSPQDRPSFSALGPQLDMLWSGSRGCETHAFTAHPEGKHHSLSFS
(§4) Dilution of JAK2, JAK3 and TYK2: 20 mM 3-(N-morpholino)propanesulfonic acid (MOPS), 1 mM EDTA, 0.01% Brij-35.5% glycerol, 0.1% β-mercaptoethanol, 1 mg/mL BSA; dilution of JAK1: 20 mM TRIS, 0.2 mM EDTA, 0.1% β-mercaptoethanol, 0.01% Brij-35.5% glycerol. All compounds were prepared into a 100% DMSO solution and brought to 50-fold the final assay concentration. The test compounds were diluted in 3-fold concentration gradient with 9 final concentrations from 10 μM to 0.001 μM, wherein DMSO content in the assay reaction was 2%. Working stock solutions of the compounds were added to the assay wells as the first component of the reaction, and then the remaining components were added according to the protocol detailed for the assay below.
JAK3(h) was incubated with 8 mM MOPS pH 7.0, 0.2 mM EDTA, 500 μM GGEEEEYFELVKKKK, 10 mM magnesium acetate and [γ-^33P]-ATP (activity and concentration were determined as required). […] 10 μL of the reaction mixture was then added dropwise on a P30 filter pad and washed three times with 0.425% phosphoric acid and once with methanol within 4 minutes, then dried and analyzed using a scintillation counter.

Another data set deals with TYK2(h) (Homo sapiens (Human), UniProt P29597). Put plainly: In vitro activity assay of TYK2 kinase (radiometric, Eurofins). It is filed as biochemical. The method, then: as §3, §4
Chain of TYK2(h) (P29597 whole entry): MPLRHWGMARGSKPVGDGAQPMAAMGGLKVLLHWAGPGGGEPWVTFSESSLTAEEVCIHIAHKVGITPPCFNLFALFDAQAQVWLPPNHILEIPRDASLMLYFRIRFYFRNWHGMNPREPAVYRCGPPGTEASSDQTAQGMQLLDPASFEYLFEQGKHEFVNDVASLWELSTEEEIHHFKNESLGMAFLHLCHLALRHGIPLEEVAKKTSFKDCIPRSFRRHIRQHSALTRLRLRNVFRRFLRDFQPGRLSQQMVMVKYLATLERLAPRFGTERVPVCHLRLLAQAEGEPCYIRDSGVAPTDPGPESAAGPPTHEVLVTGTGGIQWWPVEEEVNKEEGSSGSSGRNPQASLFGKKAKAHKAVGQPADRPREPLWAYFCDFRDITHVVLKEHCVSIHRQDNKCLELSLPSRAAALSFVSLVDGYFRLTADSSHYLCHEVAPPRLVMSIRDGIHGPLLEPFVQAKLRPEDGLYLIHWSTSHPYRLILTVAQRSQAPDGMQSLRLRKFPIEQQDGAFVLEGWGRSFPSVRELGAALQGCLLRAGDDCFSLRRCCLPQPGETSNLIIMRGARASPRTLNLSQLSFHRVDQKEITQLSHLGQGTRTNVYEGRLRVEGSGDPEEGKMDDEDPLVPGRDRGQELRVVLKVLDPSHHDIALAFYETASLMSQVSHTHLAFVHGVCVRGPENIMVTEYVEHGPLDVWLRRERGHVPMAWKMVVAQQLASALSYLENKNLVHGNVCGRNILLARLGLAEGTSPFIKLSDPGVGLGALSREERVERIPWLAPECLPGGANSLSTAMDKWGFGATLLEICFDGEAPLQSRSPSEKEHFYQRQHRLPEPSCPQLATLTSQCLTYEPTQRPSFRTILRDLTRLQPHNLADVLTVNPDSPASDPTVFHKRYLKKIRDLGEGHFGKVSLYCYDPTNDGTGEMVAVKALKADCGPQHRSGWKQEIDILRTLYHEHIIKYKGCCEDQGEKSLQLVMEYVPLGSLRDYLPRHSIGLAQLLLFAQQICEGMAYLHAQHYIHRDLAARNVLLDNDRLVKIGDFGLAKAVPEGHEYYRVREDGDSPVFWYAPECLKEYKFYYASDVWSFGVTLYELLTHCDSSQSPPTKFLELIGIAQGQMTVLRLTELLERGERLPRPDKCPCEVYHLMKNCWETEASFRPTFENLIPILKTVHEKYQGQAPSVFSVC
TYK2(h) was incubated with 8 mM MOPS pH 7.0, 0.2 mM EDTA, 250 μM GGMEDIYFEFMGGKKK, 10 mM magnesium acetate and [γ-^33P]-ATP (activity and concentration were determined as required). […] 10 μL of the reaction mixture was then added dropwise on a P30 filter pad and washed three times with 0.425% phosphoric acid and once with methanol within 4 minutes, then dried and analyzed using a scintillation counter.

Data set [1] can be described thus: Pharmacokinetic (PK) test in mice. It is filed as in vivo, mice (C57BL/6). Conditions: mouse, plasma, male C57BL/6 mice. The protocol:
Clear solutions obtained by dissolving the test compounds were administered to male mice (C57BL/6) or rats (SD) by tail vein injection and oral gavage (overnight fasting, 7-8 weeks old). After the administration of the test compounds, blood was collected from the mandibular vein and centrifuged to obtain plasma at 0.117, 0.333, 1, 2, 4, 7 and 24 h for the intravenous injection group (1 mg/kg), and at 0.25, 0.5, 1, 2, 4, 8 and 24 h for the oral gavage group (3 mg/kg). The plasma concentration was measured by LC-MS/MS, and the relevant pharmacokinetic parameters were calculated by WinNonlin™ Version 6.3 pharmacokinetic software using non-compartmental model linear logarithmic trapezoid method.

In the next data set the target is JAK1(h) (Homo sapiens (Human), UniProt P23458). Put plainly: In vitro activity assay of JAK1 kinase (radiometric, Eurofins). In kind it is biochemical. The method, then:
as §3, §4
JAK1(h) was incubated with 20 mM Tris/HCl pH 7.5, 0.2 mM EDTA, 500 μM MGEEPLYWSFPAKKK, 10 mM magnesium acetate and [γ-^33P]-ATP (activity and concentration were determined as required). […] 10 μL of the reaction mixture was then added dropwise on a P30 filter pad and washed three times with 0.425% phosphoric acid and once with methanol within 4 minutes, then dried and analyzed using a scintillation counter.

A short description of data set [2]: Basic pKa of the compound. In kind it is physicochemical. From the text:
The present disclosure also performs salt-forming screening on L-aspartic acid, fumaric acid, L-tartaric acid and citric acid. Using the crystal form A of the compound represented by formula (II) as raw material, according to the basic pKa (4.47) of the compound and the rough solubility of the starting material in different solvents at room temperature, L-aspartic acid, fumaric acid, L-tartaric acid and citric acid were selected as acidic ligands (molar ratio of free state to acidic ligand was 1:1), and the specific steps of the screening test of five solvent systems as shown in Table 24 were as follows: about 20 mg of the starting crystal form A of the compound represented by formula (II) and equimolar amounts of the above acid were weighed into an HPLC vial, and 0.5 mL of the following solvent were added thereto and mixed to obtain a suspension. After suspending and stirring at room temperature for 3 days, the solid was separated by centrifugation and dried under vacuum at room temperature for about 4 hours.

Data set [3] relates to adjuvant-induced arthritis (AIA). Put plainly: Adjuvant-induced arthritis (AIA) in rats, in-vivo pharmacodynamic study. On the set-up: species or system Lewis rats. Conditions: rat AIA. The protocol: The compounds disclosed herein were tested for their efficacy on arthritis using a model of adjuvant-induced arthritis in rat. Female, 160 to 180 gram Lewis rats were anesthetized with isoflurane and injected subcutaneously with 0.1 mL of Mycobacterium tuberculosis suspension in the left hind paw. The animals were grouped and administered with thetest compounds after 13 days of modeling, for example, the rats were given different doses as shown in Table 4-2. The test compound 1-13 was dissolved in a mixed menstruum of [5% DMSO, 95% (12% SBE-β-CD), 0.5% MC]. The female Lewis rats were orally administered 2 times daily (8 animals in each group).

In a further data set the target is JAK2(h) (Homo sapiens (Human), UniProt O60674). Put plainly: In vitro activity assay of JAK2 kinase (radiometric, Eurofins). It is filed as biochemical. The protocol: as §3, §4
Chain of JAK2(h) (O60674 whole entry): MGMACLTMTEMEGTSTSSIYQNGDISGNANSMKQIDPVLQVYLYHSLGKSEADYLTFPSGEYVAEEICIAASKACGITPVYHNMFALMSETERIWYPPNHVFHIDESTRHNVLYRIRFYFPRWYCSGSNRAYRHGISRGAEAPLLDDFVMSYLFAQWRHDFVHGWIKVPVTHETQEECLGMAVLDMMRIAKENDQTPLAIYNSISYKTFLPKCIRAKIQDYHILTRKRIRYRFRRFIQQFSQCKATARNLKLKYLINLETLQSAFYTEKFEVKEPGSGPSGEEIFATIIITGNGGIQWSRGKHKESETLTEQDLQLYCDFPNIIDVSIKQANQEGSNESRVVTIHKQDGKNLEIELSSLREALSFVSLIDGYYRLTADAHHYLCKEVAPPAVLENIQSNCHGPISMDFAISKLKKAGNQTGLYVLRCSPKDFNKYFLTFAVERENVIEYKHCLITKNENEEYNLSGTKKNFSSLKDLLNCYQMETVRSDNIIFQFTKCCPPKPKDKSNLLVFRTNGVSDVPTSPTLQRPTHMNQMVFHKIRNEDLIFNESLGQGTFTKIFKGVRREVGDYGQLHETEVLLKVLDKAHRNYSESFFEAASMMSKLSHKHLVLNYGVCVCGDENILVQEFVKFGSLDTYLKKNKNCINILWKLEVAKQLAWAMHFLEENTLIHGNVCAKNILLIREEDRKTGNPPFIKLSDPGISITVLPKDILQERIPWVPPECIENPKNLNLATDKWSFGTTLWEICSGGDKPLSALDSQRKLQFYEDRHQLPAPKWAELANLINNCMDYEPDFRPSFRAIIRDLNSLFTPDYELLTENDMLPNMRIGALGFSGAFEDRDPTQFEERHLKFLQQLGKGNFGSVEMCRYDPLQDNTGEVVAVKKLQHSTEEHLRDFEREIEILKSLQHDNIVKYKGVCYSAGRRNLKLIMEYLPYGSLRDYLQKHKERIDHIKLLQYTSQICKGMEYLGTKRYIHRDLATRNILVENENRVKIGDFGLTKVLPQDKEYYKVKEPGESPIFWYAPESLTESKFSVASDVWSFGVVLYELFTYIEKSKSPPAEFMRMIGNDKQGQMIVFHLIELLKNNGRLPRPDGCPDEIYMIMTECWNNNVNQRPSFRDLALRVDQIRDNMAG
JAK2(h) was incubated with 8 mM MOPS pH 7.0, 0.2 mM EDTA, 100 μM […], 10 mM magnesium acetate and [γ-^33P]-ATP (activity and concentration were determined as required). The reaction was started by adding the Mg/ATP mixture and terminated by adding 0.5% phosphoric acid after 40 min of incubation at room temperature. 10 μL of the reaction mixture was then added dropwise on a P30 filter pad and washed three times with 0.425% phosphoric acid and once with methanol within 4 minutes, then dried and analyzed using a scintillation counter.

Setting [4] is: iv 1 mg/kg, oral gavage 3 mg/kg.

Chain of JAK1(h) (P23458 whole entry): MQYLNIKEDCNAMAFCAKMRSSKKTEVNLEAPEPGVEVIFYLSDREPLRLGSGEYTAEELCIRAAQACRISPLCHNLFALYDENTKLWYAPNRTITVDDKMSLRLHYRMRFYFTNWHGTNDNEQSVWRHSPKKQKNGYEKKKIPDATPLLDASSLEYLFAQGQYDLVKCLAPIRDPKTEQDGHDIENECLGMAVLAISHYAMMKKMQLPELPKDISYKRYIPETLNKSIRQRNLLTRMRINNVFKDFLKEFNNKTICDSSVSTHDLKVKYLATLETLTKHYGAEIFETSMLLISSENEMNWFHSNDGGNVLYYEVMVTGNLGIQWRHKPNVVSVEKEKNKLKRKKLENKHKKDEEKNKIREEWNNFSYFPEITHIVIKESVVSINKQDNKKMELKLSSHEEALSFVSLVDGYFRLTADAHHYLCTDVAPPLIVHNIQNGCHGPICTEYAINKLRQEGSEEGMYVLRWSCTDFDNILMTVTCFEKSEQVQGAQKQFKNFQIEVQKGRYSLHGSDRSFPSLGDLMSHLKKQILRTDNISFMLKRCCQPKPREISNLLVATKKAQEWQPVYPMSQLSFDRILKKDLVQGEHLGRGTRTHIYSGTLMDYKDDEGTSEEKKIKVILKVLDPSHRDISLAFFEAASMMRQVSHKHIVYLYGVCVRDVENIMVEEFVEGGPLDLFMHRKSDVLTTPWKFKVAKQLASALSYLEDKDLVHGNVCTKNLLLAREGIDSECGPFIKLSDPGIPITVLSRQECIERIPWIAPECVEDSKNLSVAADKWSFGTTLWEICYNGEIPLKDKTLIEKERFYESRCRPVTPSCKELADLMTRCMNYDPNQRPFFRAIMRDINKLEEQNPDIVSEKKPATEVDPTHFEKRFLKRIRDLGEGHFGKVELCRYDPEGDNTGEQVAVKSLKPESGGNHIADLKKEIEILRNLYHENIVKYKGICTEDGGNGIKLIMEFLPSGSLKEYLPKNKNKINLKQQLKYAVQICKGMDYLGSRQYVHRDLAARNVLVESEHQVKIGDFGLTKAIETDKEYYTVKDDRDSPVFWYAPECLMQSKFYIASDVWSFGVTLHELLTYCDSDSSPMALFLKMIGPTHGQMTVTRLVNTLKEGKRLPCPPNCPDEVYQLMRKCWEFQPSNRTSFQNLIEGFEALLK

`CC(C)(C)NCC(O)COc1cccc2c1CC(O)C(O)C2` (stereo not shown) [Nadolol]: the “Mean apparent permeability coefficient Mean Papp A to B” value with Caco-2 cells is 0.16 10^−6 cm/s.

For the compound `CN(c1ncnc2[nH]ccc12)[C@@H]1CCc2cc(C#N)nn2C1`, in “in vitro”, the apical-to-basolateral permeability (Papp A→B) at 2 h, 2 μM is 28.6 ×10⁻⁶ cm/s; the Papp B→A at 2 h, 2 μM amounted to 31.2 ×10⁻⁶ cm/s; the efflux ratio at 2 h, 2 μM worked out at 1.09. The compound also had a 50% inhibitory concentration (IC50) on JAK3(h) of 118 nM. On TYK2(h), this compound gave an IC50 of 15 nM. Besides, in data set [1] (setting [4]), the AUC(0-inf) was 12.8 µM·h, the maximum concentration (Cmax) came out at 6 µM and the half-life was 1.89 h. In data set [1] (oral gavage 3 mg/kg vs iv 1 mg/kg), the bioavailability was 88.4%. Besides, 1 nM corresponded to half-maximal inhibition against JAK1(h) (IC50). Moreover, the pKa in data set [2] worked out at 4.47. In addition, in data set [3] (3 mg/kg and 10 mg/kg, P<0.0001), the “therapeutic effect (inhibition rate versus menstruum control group)” value is listed as “significant therapeutic effect”. In addition, the “Inhibition on area under the clinical score curve (AUC)” value in [3] (3 mg/kg oral 2 times daily) was 49.6%. Further, the “Inhibition on area under the clinical score curve (AUC)” value in data set [3] (10 mg/kg oral 2 times daily) turned out to be 60.5%. This compound also yielded an IC50 against JAK2(h) of 8 nM.
